Numbers after ± are expanded uncertainties.
Details: Liquid, Vibrating wire viscometry

Cc1ccccc1 [toluene]
viscosity [mPa·s]
Details | 273.13 K | 298.15 K | 323.16 K | 343.16 K | 363.16 K
1000 kPa | 0.7735 ± 0.017 | 0.5573 ± 0.013 | 0.4222 ± 0.0099 | 0.3495 ± 0.0085 | 0.2941 ± 0.0075
5000 kPa | 0.7996 ± 0.017 | 0.5744 ± 0.013 | 0.4359 ± 0.01 | 0.3611 ± 0.0087 | 0.3047 ± 0.0077
10000 kPa | 0.832 ± 0.018 | 0.5969 ± 0.013 | 0.4531 ± 0.01 | 0.3757 ± 0.009 | 0.3173 ± 0.0079
20000 kPa | 0.8994 ± 0.019 | 0.6394 ± 0.014 | 0.4894 ± 0.011 | 0.4054 ± 0.0096 | 0.3436 ± 0.0084
30000 kPa | 0.969 ± 0.021 | 0.6892 ± 0.015 | 0.5242 ± 0.012 | 0.4367 ± 0.01 | 0.3694 ± 0.0089

F/C=C/C(F)(F)F [trans-1,3,3,3-tetrafluoropropene]
Details | viscosity [mPa·s]
243.16 K, 61 kPa | 0.3906 ± 0.0092
243.16 K, 1000 kPa | 0.395 ± 0.0093
243.16 K, 3000 kPa | 0.4028 ± 0.0095
243.16 K, 5000 kPa | 0.4116 ± 0.0096
243.16 K, 10000 kPa | 0.4321 ± 0.01
243.16 K, 15000 kPa | 0.4532 ± 0.01
243.16 K, 20000 kPa | 0.4742 ± 0.011
243.16 K, 25000 kPa | 0.4951 ± 0.011
243.16 K, 30000 kPa | 0.517 ± 0.012
253.16 K, 97 kPa | 0.3409 ± 0.0083
253.16 K, 1000 kPa | 0.3462 ± 0.0084
253.16 K, 3000 kPa | 0.3538 ± 0.0086
253.16 K, 5000 kPa | 0.3613 ± 0.0087
253.16 K, 10000 kPa | 0.381 ± 0.0091
253.16 K, 15000 kPa | 0.3999 ± 0.0094
253.16 K, 20000 kPa | 0.4192 ± 0.0098
253.16 K, 25000 kPa | 0.4374 ± 0.01
253.16 K, 30000 kPa | 0.4554 ± 0.01
263.16 K, 148 kPa | 0.2942 ± 0.0075
263.16 K, 1000 kPa | 0.3043 ± 0.0077
263.16 K, 3000 kPa | 0.3119 ± 0.0078
263.16 K, 5000 kPa | 0.3189 ± 0.0079
263.16 K, 10000 kPa | 0.3358 ± 0.0082
263.16 K, 15000 kPa | 0.3534 ± 0.0085
263.16 K, 20000 kPa | 0.3707 ± 0.0089
263.16 K, 25000 kPa | 0.3875 ± 0.0092
263.16 K, 30000 kPa | 0.4047 ± 0.0095
273.15 K, 217 kPa | 0.2572 ± 0.0068
273.15 K, 1000 kPa | 0.2626 ± 0.0069
273.15 K, 3000 kPa | 0.2702 ± 0.007
273.15 K, 5000 kPa | 0.2776 ± 0.0072
273.15 K, 10000 kPa | 0.2949 ± 0.0075
273.15 K, 15000 kPa | 0.3127 ± 0.0078
273.15 K, 20000 kPa | 0.3284 ± 0.0081
273.15 K, 25000 kPa | 0.3451 ± 0.0084
273.15 K, 30000 kPa | 0.3616 ± 0.0087
283.14 K, 308 kPa | 0.2271 ± 0.0063
283.14 K, 1000 kPa | 0.2318 ± 0.0064
283.14 K, 3000 kPa | 0.2383 ± 0.0065
283.14 K, 5000 kPa | 0.2442 ± 0.0066
283.14 K, 10000 kPa | 0.2602 ± 0.0069
283.14 K, 15000 kPa | 0.2755 ± 0.0071
283.14 K, 20000 kPa | 0.2908 ± 0.0074
283.14 K, 25000 kPa | 0.3061 ± 0.0077
283.14 K, 30000 kPa | 0.3203 ± 0.0079
293.15 K, 428 kPa | 0.2016 ± 0.0059
293.15 K, 1000 kPa | 0.2035 ± 0.0059
293.15 K, 3000 kPa | 0.2097 ± 0.006
293.15 K, 5000 kPa | 0.216 ± 0.0061
293.15 K, 10000 kPa | 0.2315 ± 0.0064
293.15 K, 15000 kPa | 0.2459 ± 0.0066
293.15 K, 20000 kPa | 0.2606 ± 0.0069
293.15 K, 25000 kPa | 0.2741 ± 0.0071
293.15 K, 30000 kPa | 0.2877 ± 0.0073
303.15 K, 579 kPa | 0.179 ± 0.0055
303.15 K, 1000 kPa | 0.1816 ± 0.0056
303.15 K, 3000 kPa | 0.1875 ± 0.0056
303.15 K, 5000 kPa | 0.1933 ± 0.0057
303.15 K, 10000 kPa | 0.2085 ± 0.006
303.15 K, 15000 kPa | 0.2227 ± 0.0062
303.15 K, 20000 kPa | 0.2364 ± 0.0064
303.15 K, 25000 kPa | 0.2495 ± 0.0067
303.15 K, 30000 kPa | 0.2625 ± 0.0069
313.14 K, 767 kPa | 0.1587 ± 0.0052
313.14 K, 1000 kPa | 0.1601 ± 0.0052
313.14 K, 3000 kPa | 0.1663 ± 0.0053
313.14 K, 5000 kPa | 0.1728 ± 0.0054
313.14 K, 10000 kPa | 0.1873 ± 0.0056
313.14 K, 15000 kPa | 0.2008 ± 0.0059
313.14 K, 20000 kPa | 0.2151 ± 0.0061
313.14 K, 25000 kPa | 0.2283 ± 0.0063
313.14 K, 30000 kPa | 0.2401 ± 0.0065
323.16 K, 998 kPa | 0.1405 ± 0.0049
323.16 K, 3000 kPa | 0.1479 ± 0.005
323.16 K, 5000 kPa | 0.1539 ± 0.0051
323.16 K, 10000 kPa | 0.1687 ± 0.0053
323.16 K, 15000 kPa | 0.183 ± 0.0056
323.16 K, 20000 kPa | 0.1968 ± 0.0058
323.16 K, 25000 kPa | 0.2093 ± 0.006
323.16 K, 30000 kPa | 0.221 ± 0.0062
333.16 K, 1277 kPa | 0.1239 ± 0.0047
333.16 K, 3000 kPa | 0.1305 ± 0.0048
333.16 K, 5000 kPa | 0.1373 ± 0.0049
333.16 K, 10000 kPa | 0.1527 ± 0.0051
333.16 K, 15000 kPa | 0.1671 ± 0.0053
333.16 K, 20000 kPa | 0.1796 ± 0.0055
333.16 K, 25000 kPa | 0.1914 ± 0.0057
333.16 K, 30000 kPa | 0.2033 ± 0.0059
343.16 K, 1611 kPa | 0.1085 ± 0.0045
343.16 K, 3000 kPa | 0.115 ± 0.0046
343.16 K, 5000 kPa | 0.1227 ± 0.0047
343.16 K, 10000 kPa | 0.1383 ± 0.0049
343.16 K, 15000 kPa | 0.1527 ± 0.0051
343.16 K, 20000 kPa | 0.1657 ± 0.0053
343.16 K, 25000 kPa | 0.1773 ± 0.0055
343.16 K, 30000 kPa | 0.1888 ± 0.0057
353.16 K, 2008 kPa | 0.0939 ± 0.0043
353.16 K, 3000 kPa | 0.0993 ± 0.0044
353.16 K, 5000 kPa | 0.1072 ± 0.0045
353.16 K, 10000 kPa | 0.1241 ± 0.0047
353.16 K, 15000 kPa | 0.139 ± 0.0049
353.16 K, 20000 kPa | 0.1516 ± 0.0051
353.16 K, 25000 kPa | 0.1638 ± 0.0053
353.16 K, 30000 kPa | 0.1749 ± 0.0054
363.16 K, 2475 kPa | 0.079 ± 0.0043
363.16 K, 3000 kPa | 0.0833 ± 0.0042
363.16 K, 5000 kPa | 0.0932 ± 0.0043
363.16 K, 10000 kPa | 0.1125 ± 0.0045
363.16 K, 15000 kPa | 0.1273 ± 0.0047
363.16 K, 20000 kPa | 0.1401 ± 0.0049
363.16 K, 25000 kPa | 0.1516 ± 0.0051
363.16 K, 30000 kPa | 0.1622 ± 0.0052
373.17 K, 3026 kPa | 0.0632 ± 0.0042
373.17 K, 5000 kPa | 0.0809 ± 0.0042
373.17 K, 10000 kPa | 0.1013 ± 0.0044
373.17 K, 15000 kPa | 0.1155 ± 0.0046
373.17 K, 20000 kPa | 0.1286 ± 0.0048
373.17 K, 25000 kPa | 0.1403 ± 0.0049
373.17 K, 30000 kPa | 0.1514 ± 0.0051

From the NIST ThermoML archive (doi:10.1016/j.jct.2013.03.013)
